Experimental findings from patent publication US20120183635A1, “ROSEMARY EXTRACTS, DIETARY AND PHARMACEUTICAL COMPOSITIONS CONTAINING THEM AND THEIR USES” (DSM IP ASSETS B.V., priority 2006, published 2012) are described below.

This experiment has as its system duration of immobility. The experiment can be described thus: Porsolt's Forced Swim Test (FST) in the mouse. Type of experiment: in vivo. The following applies: 32 mg/kg p.o., −24, −5, −1 h. As to the method:
Mice were individually placed in a cylinder (Height=24.5 cm, Diameter=19.5 cm) containing 13.5 cm water (22° C.) from which they could not escape. The mice were placed in the water for 6 min and the duration of immobility during the last 4 min was measured. Ten mice were studied per group. Rosemary extract (dissolved in corn oil) was evaluated at 272, 409 and 545 mg/kg body weight, administered orally 24, 5, and 1 h before the test, and compared with a vehicle-treated control group. Imipramine (32 mg/kg, p.o.; dissolved in distilled water), administered under the same experimental conditions, was used as reference substance. Data were analysed by comparing all groups using one-way Analysis of Variance (ANOVA) and the Bonferroni post-hoc test.

Consider `CN(C)CCCN1c2ccccc2CCc2ccccc21` [Imipramine, imipramine], for which the “DURATION OF IMMOBILITY % change from control” value is listed as −59% and the “DURATION OF IMMOBILITY (as % total test time) mean ± S.D.” value was found to be 17.75 ± 9.92 % total test time.
